From paper PMC4856737 (Bioorganic & medicinal chemistry letters, 2016)

What was measured:
[1] = test system: M. Tb. H37Rv (ATCC 27294); experiment: M. Tb. H37Rv dose-response assay; assay type: cell-based; conditions: Mycobacterium tuberculosis, ATCC27294|H37RV
in vitro = conditions: mouse, % of cellular viability, High conc
M. Tb. H37Rv = experiment: Minimum bactericidal concentration; assay type: cell-based, Mycobacterium tuberculosis

For `CC(=O)c1c(C(F)(F)F)nc2cc(F)c(N3CCSCC3)cc2[n+]1[O-]` [Compound 24], the IC50 [1] was 500 to 1500 nM.
For `O=C(c1ccco1)c1c(C(F)(F)F)[n+]([O-])c2cc(Cl)c(N3CCOCC3)cc2[n+]1[O-]` [Compound 16], the viability (in vitro) was 26%, the MBC (M. Tb. H37Rv; NA: colony counts above the established rejection value ≥ 40, TNTC: too numerous to count) was “TNTC” and the IC50 [1] was 500 to 1500 nM.
In the case of `Cc1c(C(=O)/C=C/c2ccccc2)[n+]([O-])c2cc(Cl)ccc2[n+]1[O-]` [Compound 3], the IC50 [1] is reported as 500 to 1500 nM.
With `COC(=O)c1c(C(F)(F)F)[n+]([O-])c2ccc(N3CCN(c4ccc(F)cc4)CC3)cc2[n+]1[O-]` [Compound 21] the bactericidal classification (M. Tb. H37Rv; ratio MBC/MIC ≤ 4) was “bactericidal”.
